Data as given in patent US6432688B1, “Amino alcohol dehydrogenase converts keto alcohol to amino alcohol and amino alcohol to keto alcohol” (Daicel Chemical Industries, Ltd., priority 1999, dated 2002).

How the values were obtained:
[1] = tested on: amino alcohol dehydrogenase derived from Streptomyces virginiae IFO 12827; assay: Substrate specificity, relative activity to various substrates
Method: Based on this reaction, the amino alcohol dehydrogenase activity i n the crude enzyme solution was spectroscopically determined by measuring the change of absorbance at 490 nm. One unit of enzymewas defined as the amount of the enzyme producing 1 μmol formazan in 1 min under the above condition.

[2] = tested on: amino alcohol dehydrogenase obtained in Example 7; assay: Enzyme reaction: conversion of substrates, product analysed by GC, HPLC or GC-MS; format: biochemical, Streptomyces virginiae IFO 12827; conditions: 0.5 unit enzyme, 25° C., 48 hours; reductive: 10 mM NADH, 0.2M NH4Cl, pH 8.0; oxidative: 10 mM NAD+, pH 9.0
Method: The amino alcohol dehydrogenase (0.5 unit) obtained in Example 7 was added to 2 ml of a mixture containing 5 mM hydroxyacetone, 10 mM NADH, 0.2M NH4Cl, 0.1 M Tris-HCl buffer (pH 8.0), and the resulting reaction mixture was incubated at 25° C. for 48 hours. The product was analyzed by gas chromatography with a FID detector (column, TENAX TA (3.2 mm×1 m); injection and detection temperature, […]; N2 flow rate, 50 ml/min; column temperature, gradient from 150 to 180° C. (5° C./min); retained at 180° C. for 10 min). […] The retention time of 2-amino-1-propanol was completely the same as that of the standard compound.
The same reaction system as used in 1) except for using oxalacetic acid as a substrate in place of hydroxyacetone was incubated at 25° C. for 48 hours. The produced amino acid was converted into an o-phthalaldehyde (OPA) derivative by OPA-derivatization method. The derivative was analyzed by high-performance liquid chromatography (column, CAPCELL PAC C18 AG120 (4.6 mm×25 cm, Shiseido); detection, 340 nm; column temperature, 45° C.; mobile phase flow rate, 1 ml/ min; concentration gradient elution, a) 10 mM sodium phosphate buffer (pH 6.8) to b) acetonitrile:10 mM sodium phosphate buffer (pH 6.8) =2:1).
The amino alcohol dehydrogenase (0.5 unit) was added to a mixture of 2 mM 1-phenethylamine, 10 mM NAD^+ and 0.1, M Tris-HCl buffer (pH 9.0), and the resulting reaction solution was incubated at 25° C. for 48 hours. The reaction solution was adjusted to pH 10.0 with NaOH and extracted with an equivalent volume of ethyl acetate.

[3] = biological target: T1, alanine dehydrogenase (derived from Bacillus stearothermophilius, Seikagaku Corporation) (Geobacillus stearothermophilus, UniProt P17557); assay: Reactivity of commercially available alanine dehydrogenase (NADH at 340 nm); format: biochemical; conditions: 1 mM NAD+, 10 mM substrate, 0.1 M Tris-HCl pH 8.0, 0.02 unit enzyme, 25° C.
T1 construct: purchased Seikagaku Corporation
T1 sequence (P17557 whole entry): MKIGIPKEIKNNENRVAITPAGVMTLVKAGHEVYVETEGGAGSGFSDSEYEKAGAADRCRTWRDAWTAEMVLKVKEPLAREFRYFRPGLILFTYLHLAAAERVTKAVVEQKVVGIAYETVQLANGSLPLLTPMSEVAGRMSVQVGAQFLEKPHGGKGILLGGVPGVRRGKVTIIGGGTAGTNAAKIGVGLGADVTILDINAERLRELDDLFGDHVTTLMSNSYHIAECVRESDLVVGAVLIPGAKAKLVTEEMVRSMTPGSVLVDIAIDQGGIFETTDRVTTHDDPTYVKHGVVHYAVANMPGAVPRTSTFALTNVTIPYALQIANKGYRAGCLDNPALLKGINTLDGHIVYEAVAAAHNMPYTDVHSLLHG
Method: (§1) Known NAD(H)-dependent amino acid dehydrogenases reportedly act on only keto acids and amino acids as substrates (Experiments of Biochemistry, Vol. 11, ed. by Japan Society of Biochemistry, Amino acid metabolism and biological amine (I) 193-218, J. Org. Chem. 55, 5567, 1990; Fermentation and Industry 40, 301-311, 1982). […] Reactivity of a commercially available alanine dehydrogenase to amino alcohols was examined. Reaction was performed at 25° C. for several min in a reaction solution containing 1 mM NAD^+, 10 mM of each substrate, 0.1 M Tris-HCl buffer (pH 8.0), and 0.02 unit of alanine dehydrogenase (derived from Bacillus stearothermophilius, Seikagaku Corporation). NADH produced was spectroscopically measured at 340 nm.

[4] = tested on: L-glutamate dehydrogenase derived from microorganism (Toyobo); assay: Reactivity of L-glutamate dehydrogenase derived from microorganism; format: biochemical; conditions: same experiment as Comparison Example 1
Method: as §1
The same experiment as Comparison Example 1 was conducted using L-glutamate dehydrogenase derived from microorganism (Toyobo), and that derived from bovine liver (Lifetech Oriental).

[5] = tested on: amino alcohol dehydrogenase derived from Streptomyces virginiae IFO 12827; assay: Km values in reductive amination and oxidative deamination; format: biochemical
[6] = tested on: amino alcohol dehydrogenase derived from Streptomyces virginiae IFO 12827; assay: Coenzyme dependence; format: biochemical
[7] = Substrate (Amino alcohols), activity to serinol as 100%, TABLE 3
[8] = Substrate (Amino alcohols), activity to serinol as 100%, TABLE 3 printed a second time
[9] = Substrate (Amines), TABLE 5 printed a fourth time
[10] = Substrate (Amines), TABLE 5 printed a second time
[11] = Substrate (Amines), TABLE 5 printed a third time
[12] = oxidative deamination reaction (pH 9.0, Tris-HCl buffer)
[13] = reductive amination reaction (pH 7.0, phosphate buffer)

CCCC(N)CO (racemic) [DL-2-amino-1-pentanol]
Relative activity (%) [1, 7]: 103%
Relative activity (%) [1, 8]: 103%

CCC(N)CO (single isomer, unassigned; (+)) [(+)-2-amino-1-butanol]
Relative activity (%) [1, 7]: 109%
Relative activity (%) [1, 8]: 109%

CC(N)CCc1ccccc1 (centres unmarked) [1-methyl-3-phenylpropylamine]
Relative activity (%) ([1]; Substrate (Amines), TABLE 5): 152%
Relative activity (%) [1, 9]: 152%
Relative activity (%) [1, 10]: 152%
Relative activity (%) [1, 11]: 152%

CC(N)c1ccccc1 (centres unmarked) [1-phenethylamine]
conversion by the enzyme [2]: the enzyme converts amine into ketone

CC(C)(N)CO [2-amino-2-methyl-1-propanol]
Relative activity (%) [1, 7]: 115%
Relative activity (%) [1, 8]: 115%

Nc1ncccc1O [2-amino-3-hydroxypyridine]
Relative activity (%) [1, 7]: 136%
Relative activity (%) [1, 8]: 136%

NC1CCCCC1O (centres unmarked) [2-aminocyclohexanol]
Relative activity (%) [1, 7]: 113%
Relative activity (%) [1, 8]: 113%

CCCC(C)N (centres unmarked) [2-aminopentane]
Relative activity (%) ([1]; Substrate (Amines), TABLE 5): 252%
Relative activity (%) [1, 9]: 252%
Relative activity (%) [1, 10]: 252%
Relative activity (%) [1, 11]: 252%

CCC(N)CC [3-aminopentane]
Relative activity (%) ([1]; Substrate (Amines), TABLE 5): 270%
Relative activity (%) [1, 9]: 270%
Relative activity (%) [1, 10]: 270%
Relative activity (%) [1, 11]: 270%

C[C@@H](N)c1ccccc1 [(R)-1-phenethylamine]
Relative activity (%) ([1]; Substrate (Amines), TABLE 5): 127%
Relative activity (%) [1, 9]: 127%
Relative activity (%) [1, 10]: 127%
Relative activity (%) [1, 11]: 127%

CC[C@@H](C)N [(R)-2-aminobutane]
Relative activity (%) ([1]; Substrate (Amines), TABLE 5): 127%
Relative activity (%) [1, 9]: 127%
Relative activity (%) [1, 10]: 127%
Relative activity (%) [1, 11]: 127%

CCCCC[C@@H](C)N [(R)-2-aminoheptane]
Relative activity (%) ([1]; Substrate (Amines), TABLE 5): 91%
Relative activity (%) [1, 9]: 91%
Relative activity (%) [1, 10]: 91%
Relative activity (%) [1, 11]: 91%

CC(C)[C@H](N)CO [(S)-(+)-2-amino-3-methyl-1-butanol]
Relative activity (%) [1, 7]: 43%
Relative activity (%) [1, 8]: 43%

CC(C)C[C@H](N)CO [(S)-(+)-leucinol]
Relative activity (%) [1, 7]: 105%
Relative activity (%) [1, 8]: 105%

N[C@H](CO)Cc1ccccc1 [(S)-(−)-2-amino-3-phenyl-1-propanol]
Relative activity (%) [1, 7]: 120%
Relative activity (%) [1, 8]: 120%

CSCC[C@H](N)CO [L-(−)-methioninol]
Relative activity (%) [1, 7]: 85%
Relative activity (%) [1, 8]: 85%

C[C@H](N)C(=O)O [L-alanine]
enzyme acts on substrate [3]: acted on

N[C@@H](CCC(=O)O)C(=O)O [L-glutamic acid]
enzyme acts on substrate [4]: acted on

NC(=O)c1ccc[n+]([C@@H]2O[C@H](COP(=O)([O-])OP(=O)(O)OC[C@H]3O[C@@H](n4cnc5c(N)ncnc54)[C@H](O)[C@@H]3O)[C@@H](O)[C@H]2O)c1 [NAD^+]
Km [5, 12]: 840 µM

Cl.N [NH4Cl]
Km [5, 13]: 25000 µM

COS(=O)(=O)[O-].C[n+]1c2ccccc2nc2ccccc21 [PMS, phenazinementasulfate, reference compound]
use as coenzyme / electron acceptor [6]: does not use

NCc1ccccc1 [benzylamine]
Relative activity (%) ([1]; Substrate (Amines), TABLE 5): 134%
Relative activity (%) [1, 9]: 134%
Relative activity (%) [1, 10]: 134%
Relative activity (%) [1, 11]: 134%

CC(=O)CO [hydroxyacetone]
conversion by the enzyme [2]: production of 2-amino-1-propanol was detected

CC[C@H](C)[C@H](N)CO [isoleucinol]
Relative activity (%) [1, 7]: 113%
Relative activity (%) [1, 8]: 113%

CCCCN [n-butylamine]
Relative activity (%) ([1]; Substrate (Amines), TABLE 5): 170%
Relative activity (%) [1, 9]: 170%
Relative activity (%) [1, 10]: 170%
Relative activity (%) [1, 11]: 170%

CCCCCCN [n-hexylamine]
Relative activity (%) ([1]; Substrate (Amines), TABLE 5): 173%
Relative activity (%) [1, 9]: 173%
Relative activity (%) [1, 10]: 173%
Relative activity (%) [1, 11]: 173%

CCCCCCCCN [n-octylamine]
Relative activity (%) ([1]; Substrate (Amines), TABLE 5): 114%
Relative activity (%) [1, 9]: 114%
Relative activity (%) [1, 10]: 114%
Relative activity (%) [1, 11]: 114%

O=C(O)CC(=O)C(=O)O [oxalacetic acid]
conversion by the enzyme [2]: peak of the product, aspartic acid was observed

NC(CO)CO [serinol]
Km [5, 12]: 4000 µM
Relative activity (%) [1, 7]: 100%
Relative activity (%) [1, 8]: 100%

NAD(H)
use as coenzyme / electron acceptor [6]: dependent

NADH
Km [5, 13]: 22 µM

NADP(H)
use as coenzyme / electron acceptor [6]: does not use
